Test results from patent US11840686B2, “Modulation of prekallikrein (PKK) expression” (Ionis Pharmaceuticals, Inc., priority 2013, dated 2023).
Several values for one entry are separate records, joined by “and”; a condition that tells them apart may be missing. Equal entries are not always repeated. Strand notation (5' to 3'): a small letter for the sugar, then the base; units joined by * are phosphorothioate-linked, units joined directly phosphodiester-linked; [ ] holds rarer units or linkages, { } end groups; capitals alone tell only the bases. e = 2'-O-(2-methoxyethyl) (MOE); [5mC] = 5-methylcytosine; d = 2'-deoxy (DNA)

Assays:
[1] = system: basal and captopril-induced vascular permeability; assay: Evans Blue basal and captopril-induced vascular permeability in mice (Example 12); format: in vivo, mouse; conditions: ISIS 482584 40 mg/kg sc twice a week 4 weeks, HOE-140 30 μg ip
Experimental: Basal permeability is the level of vascular permeability occurring in the tissues of naïve, untreated mice. The effect of ISIS 482584 in the prevention of vascular permeability, either basal or captopril-induced, was evaluated.
Group 1 consisted of 8 mice and was treated with PBS administered subcutaneously twice a week for 4 weeks. No other treatment was administered to Group 1 which served as a control group to measure the basal levels of vascular permeability.
Group 2 consisted of 8 mice and was treated with PBS administered subcutaneously twice a week for 4 weeks. At the end of the treatment period, the mice were intraperitoneally administered 20 μg of captopril. Group 2 served as the negative control group for captopril-induced vascular permeability.
Group 3 consisted of 8 mice and was treated with PBS administered subcutaneously twice a week for 4 weeks. At the end of the treatment period, the mice were intraperitoneally administered 30 μg of HOE-140. Group 3 served as a positive control for inhibition of basal vascular permeability.
Group 4 consisted of 8 mice and was treated with PBS administered subcutaneously twice a week for 4 weeks. At the end of the treatment period, the mice were intraperitoneally administered 20 μg of captopril. The mice were also intraperitoneally administered 30 μg of HOE-140. Group 4 served as a positive control for inhibition of captopril-induced vascular permeability.
(§1) Group 5 consisted of 8 mice and was treated with 40 mg/kg of ISIS 482584 administered subcutaneously twice a week for 4 weeks. Group 5 served as an experimental treatment group for examining the effect of ISIS 482584 on basal vascular permeability.
as §1, with “Group 6” for “Group 5”, “weeks. At the end of the treatment period, the mice were intraperitoneally administered 20 μg of captopril.” for “weeks.”, “on captopril-induced” for “on basal”
All the groups were then injected with 30 mg/kg of Evans Blue solution. The mice were sacrificed 30 min after the Evans Blue solution administration and colons, feet, ears, and intestines were harvested.
The harvested tissues from the feet, colon, intestine, and ears were placed separately in formamide solution overnight to leach out the Evans Blue dye. The formamide solution containing feet and ear tissue was heated to 55° C. and left overnight.

[2] = system: captopril-induced vascular permeability; assay: Dose-dependent effect on captopril-induced vascular permeability, Evans Blue OD600 (Example 13); format: in vivo, mouse; conditions: captopril Yes; HOE-140 30 μg ip
Experimental: The effect of varying doses on ISIS 482584 on captopril-induced vascular permeability was evaluated.
Group 1 consisted of 4 mice and was treated with PBS administered subcutaneously twice a week for 3 weeks. No other treatment was administered to Group 1 which served as a control group to measure the basal levels of vascular permeability.
Group 2 consisted of 8 mice and was treated with PBS administered subcutaneously twice a week for 3 weeks. At the end of the treatment period, the mice were intraperitoneally administered 20 μg of captopril. Group 2 served as the control group for captopril-induced vascular permeability.
Group 3 consisted of 4 mice and was treated with PBS administered subcutaneously twice a week for 3 weeks. At the end of the treatment period, the mice were intraperitoneally administered 20 μg of captopril. The mice were also intraperitoneally administered 30 μg of Icatibant (HOE-140). […] served as a positive control for inhibition of captopril-induced vascular permeability.
Groups 4, 5, 6, 7, 8, and 9 consisted of 8 mice each and were treated with 2.5 mg/kg, 5 mg/kg, 10 mg/kg, 20 mg/kg, 40 mg/kg, or 80 mg/kg (corresponding to 5 mg/kg, 10 mg/kg, 20 mg/kg, 40 mg/kg, 80 mg/kg, or 160 mg/kg per week), respectively of ISIS 482584 administered subcutaneously twice a week for 3 weeks. At the end of the treatment period, the mice of all the groups were intraperitoneally administered 20 μg of captopril. Groups 4-9 served as the experimental treatment groups for examining the effect of varying doses of ISIS 482584 on captopril-induced vascular permeability.
All the groups were then injected with 30 mg/kg of Evans Blue solution in the tail vein. The mice were sacrificed 30 min after the Evans Blue solution administration and colons, feet, ears, and intestines were harvested. Blood samples were taken through cardiac puncture.
The harvested tissues were placed in formamide solution overnight to leach out the Evans Blue dye. The formamide solution containing feet and ear tissue was heated to 55° C. and left overnight.

[3] = system: human PKK mRNA; assay: Dose-dependent antisense inhibition of human PKK in HepaRG cells, 0.19-5.00 uM (Example 5); format: cell-based
Summary of the method: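 HepaRG cells (20,000/well) were electroporated with antisense oligonucleotide at 0.19, 0.56, 1.67 and 5.00 μM and treated for about 16 hours. PKK mRNA was quantified by qRT-PCR with primer probe set RTS3454, normalised to RIBOGREEN total RNA, and IC50 was derived per oligonucleotide.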

[4] = HepaRG cells, electroporation, approximately 16 hours, Table 35
[5] = HepaRG cells, electroporation, approximately 16 hours, Table 36
[6] = HepaRG cells, electroporation, approximately 16 hours, Table 37
[7] = HepaRG cells, electroporation, approximately 16 hours, Table 38
[8] = HepaRG cells, electroporation, approximately 16 hours, Table 39
[9] = HepaRG cells, electroporation, approximately 16 hours, Table 40
[10] = Table 34, HepaRG, electroporation, ~16 h

## NC(N)=NCCC[C@@H](N)C(=O)N[C@@H](CCCN=C(N)N)C(=O)N1CCC[C@H]1C(=O)N1C[C@H](O)C[C@H]1C(=O)NCC(=O)N[C@@H](Cc1cccs1)C(=O)N[C@@H](CO)C(=O)N1Cc2ccccc2C[C@@H]1C(=O)N1[C@H](C(=O)N[C@@H](CCCN=C(N)N)C(=O)O)C[C@@H]2CCCC[C@@H]21 [HOE-140, Icatibant, reference compound]
[1]; basal (captopril No)
  OD600 nm of Evans Blue dye, Colon: 0.18
  OD600 nm of Evans Blue dye, Ears: 0.03
  OD600 nm of Evans Blue dye, Feet: 0.06
  OD600 nm of Evans Blue dye, Intestine: 0.21
[1]; captopril Yes
  OD600 nm of Evans Blue dye, Colon: 0.29
  OD600 nm of Evans Blue dye, Ears: 0.00
  OD600 nm of Evans Blue dye, Feet: 0.03
  OD600 nm of Evans Blue dye, Intestine: 0.14
[2]
  OD600 nm of Evans Blue dye, Colon: 0.15
  OD600 nm of Evans Blue dye, Ears: 0.04
  OD600 nm of Evans Blue dye, Feet: 0.03
  OD600 nm of Evans Blue dye, Intestine: 0.10

## Tes Ges mCes Aes Aes Gds Tds mCds Tds mCds Tds Tds Gds Gds mCds Aes Aes Aes mCes Ae [ISIS 546254]
[3]; 4 point dose response curve (0.19-5.0 μM), HepaRG cells, electroporation
  IC50: 200 nM and 300 nM

## 531231 (eT*eA*eT*e[5mC]*eA*d[5mC]*dT*dG*dT*dA*d[5mC]*dT*dA*dG*dT*eT*eT*e[5mC]*e[5mC]*eT) [compound 531231]
[3]; [4]
  percent inhibition of PKK at 0.19 μM: 25%
  percent inhibition of PKK at 0.56 μM: 34%
  percent inhibition of PKK at 1.67 μM: 84%
  percent inhibition of PKK at 5.00 μM: 92%
[3]; [5]
  percent inhibition of PKK at 0.19 μM: 58%
  percent inhibition of PKK at 0.56 μM: 64%
  percent inhibition of PKK at 1.67 μM: 77%
  percent inhibition of PKK at 5.00 μM: 98%
[3]; [6]
  percent inhibition of PKK at 0.19 μM: 34%
  percent inhibition of PKK at 0.56 μM: 47%
  percent inhibition of PKK at 1.67 μM: 72%
[3]; [7]
  percent inhibition of PKK at 0.19 μM: 21%
  percent inhibition of PKK at 0.56 μM: 45%
  percent inhibition of PKK at 1.67 μM: 67%
  percent inhibition of PKK at 5.00 μM: 96%
[3]; [8]
  percent inhibition of PKK at 0.19 μM: 21%
  percent inhibition of PKK at 0.56 μM: 39%
  percent inhibition of PKK at 1.67 μM: 90%
  percent inhibition of PKK at 5.00 μM: 97%
[3]; [9]
  percent inhibition of PKK at 0.19 μM: 6%
  percent inhibition of PKK at 0.56 μM: 38%
  percent inhibition of PKK at 1.67 μM: 74%
  percent inhibition of PKK at 5.00 μM: 95%
[3]; HepaRG cells, electroporation, approximately 16 hours, Table 41
  percent inhibition of PKK at 5.00 μM: 97%
[3]; 0.19 0μM, HepaRG cells, electroporation, approximately 16 hours, Table 41
  percent inhibition of PKK at 0.19 0μM: 25%
[3]; 0.56 0μM, HepaRG cells, electroporation, approximately 16 hours, Table 41
  percent inhibition of PKK at 0.56 0μM: 55%
[3]; 1.67 1μM, HepaRG cells, electroporation, approximately 16 hours, Table 41
  percent inhibition of PKK at 1.67 1μM: 89%
[3]; 4 point dose response, HepaRG cells, Table 35
  IC50: 700 nM
[3]; 4 point dose response, HepaRG cells, Table 37
  IC50: 500 nM
[3]; 4 point dose response, HepaRG cells, Table 38
  IC50: 700 nM
[3]; 4 point dose response, HepaRG cells, Table 39
  IC50: 600 nM
[3]; 4 point dose response, HepaRG cells, Table 40
  IC50: 800 nM
[3]; 4 point dose response, HepaRG cells, Table 41
  IC50: 500 nM
[3]; HepaRG cells, 0.19 μM antisense oligonucleotide
  percent inhibition of PKK mRNA, 0.19 μM: 7% and 6%
[3]; HepaRG cells, 0.56 μM antisense oligonucleotide
  percent inhibition of PKK mRNA, 0.56 μM: 39% and 56%
[3]; HepaRG cells, 1.67 μM antisense oligonucleotide
  percent inhibition of PKK mRNA, 1.67 μM: 56% and 68%
[3]; HepaRG cells, 5.00 μM antisense oligonucleotide
  percent inhibition of PKK mRNA, 5.00 μM: 97%
[3]; HepaRG cells, 0.19-5.00 μM
  IC50: 1000 nM and 800 nM
[3]; [10]
  percent inhibition of PKK at 0.19 μM: 32%
  percent inhibition of PKK at 0.56 μM: 30%
  percent inhibition of PKK at 1.67 μM: 73%
  percent inhibition of PKK at 5.00 μM: 89%
[3]; Table 34, PKK mRNA, HepaRG, electroporation, ~16 h
  IC50: 500 nM
